Experimental data from patent US9981972B2, “N-hydroxy bicyclic hydantoin carbamates as tools for identification of serine hydrolase targets” (ABIDE THERAPEUTICS, INC., priority 2014, dated 2018).

How the values were obtained:
[1] = tested on: LYPLA1/2; experiment: Inhibition by gel-based competitive ABPP in vivo (FP-Rh probe); design: species or system mouse
Procedure: In this assay, test compounds were administered to mice. Mice were sacrificed, and their tissues harvested, homogenized, and the soluble fractions isolated, reacted with FP-Rh, and separated by SDS-PAGE as described above.
Protocol Summary: Purpose-bred 3-4 month old male C57BL6 laboratory mice were i.p. administered test compound (0.5-50 mg/kg in 18:1:1 saline:PEG-40-castor oil:EtOH vehicle solution, 10 μL/g mouse weight) or vehicle only. After 4 hours, mice were humanely sacrificed (anesthetized with isoflurane followed by cervical dislocation), and tissues (liver, kidney, brain) removed and snap frozen in liquid nitrogen before processing. Tissues were homogenized, and soluble proteome isolated by ultracentrifugation (100 k×g, 45 minutes) and protein concentration adjusted to 1 mg/mL in DPBS. An aliquot (50 μL) was reacted with FP-Rh (2 μM final concentration) for 30 minutes at 25° C. Reactions were quenched with 16 μL 4×SDS-PAGE loading buffer (reducing), separated by SDS-PAGE, and visualized by in-gel fluorescent scanning. The percentage activity remaining was determined by measuring the integrated optical density of test compound bands relative to vehicle bands. Note: Due to the overlapping nature of LYPLA1 and LYPLA2 bands, the proteins were quantified together.
The in vivo inhibitory activity of Compound 1 was assessed. For this experiment, mice were administered test compound (0.5-50 mg/kg, i.p.) or vehicle only. After four hours mice were sacrificed and their tissues removed, homogenized, and the soluble fractions isolated and labeled with FP-Rh followed by SDS-PAGE and fluorescent detection of FP-labeled SHs (see FIG. 3B).
(§1) Compound 26, Compound 34, and Compound 1 were administered across a dose range of 1-40 mg/kg to C57BL6 mice by intraperitoneal injection, and, after 4 hours, animals were sacrificed and tissues harvested for analysis by gel-based ABPP using the FP-Rh probe and the Compound 39 probe.

[2] = target: T1, ABHD4 (Mus musculus, UniProt Q8VD66); experiment: Inhibition by gel-based competitive ABPP in vivo; conditions: 1-40 mg/kg i.p., 4 h, any tissue examined
T1 construct: from tissue; host or cells: tissues of C57BL6 mice
Procedure: as §1

[3] = Determination of glutathione reactivity; assay type: physicochemical; conditions: 10 μM compound, 50 μM glutathione, 37° C., 6 h
Procedure: Compound (10 μM) was incubated at 37° C. for 6 hours in the presence of 50 μM freshly prepared reduced glutathione. At 0 and 6 hours the samples were injected into the HPLC instrument. Peak area and retention time were compared between injections. Samples were evaluated for a glutathione dependent decrease in compound concentration. DMSO was added as a co-solvent as needed for solubility.

[4] = target: T2, human LYPLA1 (Homo sapiens, UniProt O75608); experiment: IC50 by gel-based competitive ABPP in situ, cultured HeLa cells; assay type: cell-based; conditions: 2 h, serum-supplemented medium
T2 construct: endogenous human LYPLA1/2 in a HeLa soluble proteome; endogenous in cells; host or cells: HeLa (soluble proteome in vitro; cultured cells in situ)
Procedure: (§2) Assay Overview: The purpose of this assay was to determine IC50 values of powder samples of test compounds for enzyme of interest activity in situ using a gel-based competitive ABPP assay. In this assay, cultured cells were treated with test compound, harvested, and lysed. The isolated soluble proteome fraction was reacted with FP-Rh and analyzed by SDS-PAGE as described above.
(§3) Protocol Summary: To cultured HeLa cells (90% confluent) was added fresh DMEM (5 mL total volume; supplemented with 10% FCS) pre-mixed with DMSO or test compound. After 2 hours at 37° C., cells were harvested by scraping, washed twice with 10 mL DPBS, and homogenized by sonication in DPBS. The soluble fraction was isolated by centrifugation (100K×g, 45 minutes) and the protein concentration was adjusted to 1 mg/mL with DPBS. FP-Rh (1 μL of 50× stock in DMSO) was added to a final concentration of 2 μM in 50 μL total reaction volume. The reaction was incubated for 30 minutes at 25° C., quenched with 16 μL 4×SDS-PAGE loading buffer (reducing), separated by SDS-PAGE and visualized by in-gel fluorescent scanning. The percentage activity remaining was determined by measuring the integrated optical density of the enzymes of interest, and anti-target bands relative to a DMSO-only (no compound) control. […]

[5] = target: T3, human LYPLA2 (Homo sapiens, UniProt O95372); experiment: as above; assay type: cell-based; conditions: 2 h, serum-supplemented medium
T3 construct: endogenous human LYPLA1/2 in a HeLa soluble proteome; endogenous in cells; host or cells: HeLa (soluble proteome in vitro; cultured cells in situ)
Procedure: as §2, §3

[6] = tested on: LYPLA1/2; experiment: Gel filtration to assess mode of action, HeLa cell lysate; assay type: biochemical, human; conditions: 200 nM or 1000 nM, FP-Rh labeling before and after gel filtration
Procedure: In this assay, a complex proteome was incubated with test compound and a fraction of the assay mixture was passaged over a Sephadex G-25M column before reaction with FP-Rh and SDS-PAGE analysis as described above.
Protocol Summary: HeLa cell lysate (1 mL of 1 mg/ml in DPBS) was treated with test compound (200 nM or 1000 nM, from 50× stock in DMSO) or DMSO only (no compound control). Test compounds were incubated for 30 minutes at 37° C. An aliquot (50 μL) was removed from each reaction, and the remaining sample was passaged over a Sephadex G-25M desalting column. An aliquot (50 μL, 1 mg/mL protein, eluted in DPBS) was removed, and pre- and post-filtration aliquots were reacted with FP-Rh (50× stock in DMSO; 2 μM final concentration). The reaction was incubated for 30 minutes at 25° C., quenched with 16 μL 4× SDS-PAGE loading buffer (reducing), separated by SDS-PAGE and visualized by in-gel fluorescent scanning. The percentage activity remaining was determined by measuring the integrated optical density of the LYPLA1/2 bands (quantified together) relative to a DMSO-only (no compound) control. The percent recovery was calculated by comparing percent inhibition before and after gel filtration for each test compound concentration.

T3 sequence (O95372 whole entry): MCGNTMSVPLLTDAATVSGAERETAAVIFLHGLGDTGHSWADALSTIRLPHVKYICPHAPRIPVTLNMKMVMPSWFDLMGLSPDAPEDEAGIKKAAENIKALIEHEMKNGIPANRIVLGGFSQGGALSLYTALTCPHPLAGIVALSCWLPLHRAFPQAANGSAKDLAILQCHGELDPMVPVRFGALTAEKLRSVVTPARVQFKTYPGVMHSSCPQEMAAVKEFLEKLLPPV
T2 sequence (O75608 whole entry): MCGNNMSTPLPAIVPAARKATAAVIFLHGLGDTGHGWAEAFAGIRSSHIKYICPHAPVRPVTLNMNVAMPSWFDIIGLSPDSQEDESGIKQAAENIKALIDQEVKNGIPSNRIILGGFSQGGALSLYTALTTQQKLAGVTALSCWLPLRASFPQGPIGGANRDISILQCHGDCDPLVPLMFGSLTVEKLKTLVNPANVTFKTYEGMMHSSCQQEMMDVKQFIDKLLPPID
T1 sequence (Q8VD66 whole entry): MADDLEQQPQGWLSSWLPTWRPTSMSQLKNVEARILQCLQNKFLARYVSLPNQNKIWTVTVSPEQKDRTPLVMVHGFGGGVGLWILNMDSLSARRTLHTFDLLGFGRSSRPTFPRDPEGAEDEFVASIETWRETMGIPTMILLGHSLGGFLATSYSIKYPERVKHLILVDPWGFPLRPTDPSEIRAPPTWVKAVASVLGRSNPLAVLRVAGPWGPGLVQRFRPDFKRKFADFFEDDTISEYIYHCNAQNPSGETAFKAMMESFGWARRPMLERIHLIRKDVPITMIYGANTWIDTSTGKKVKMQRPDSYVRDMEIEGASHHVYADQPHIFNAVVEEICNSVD

## COc1ccc(N2CCN(C(=O)ON3C(=O)C4CN(CC5CCN(Cc6ccccc6)CC5)CCN4C3=O)CC2)cc1 (stereo not shown) [Compound 26, 7-((1-benzylpiperidin-4-yl)methyl)-1,3-dioxohexahydroimidazo[1,5-a]pyrazin-2(3H)-yl 4-(4-methoxyphenyl)piperazine-1-carboxylate]
[1]; 40 mg/kg, testis, mouse
  mLYPLA1/2 (in vivo), % @ 40 mg/kg (testis): 0% @

## O=C(ON1C(=O)C2CN(Cc3ccc(Oc4ccccc4)cc3)CCN2C1=O)N1CCOCC1 (stereo not shown) [Compound 34, 1,3-dioxo-7-(4-phenoxybenzyl)hexahydroimidazo[1,5-a]pyrazin-2(3H)-yl morpholine-4-carboxylate]
[2]
  blockade of ABHD4 in vivo: did not block the activity of ABHD4 in any tissue examined

## O=C(ON1C(=O)C2CN(C(=O)N3CCOCC3)CCN2C1=O)N1CCC(CCc2ccc(Cl)cc2)CC1 (stereo not shown) [Compound 1, 7-(morpholine-4-carbonyl)-1,3-dioxohexahydroimidazo[1,5-a]pyrazin-2(3H)-yl 4-(4-chloro-phenethyl)piperidine-1-carboxylate]
[3]
  reactivity with glutathione: did not show any reactivity
[4]
  IC50: 87 nM
[5]
  IC50: 143 nM
[1]; 5 mg/kg i.p., 4 h, FP-Rh probe
  blockade of LYPLA1 and LYPLA2 in vivo: near-complete blockade of LYPLA1 and LYPLA2 in peripheral (e.g., liver, kidney), but not central (brain) tissues
[1]; 5 mg/kg, liver and kidney, mouse
  mLYPLA1/2 (in vivo), % @ 5 mg/kg (liver and kidney): 100% @
[1]; 0.5-50 mg/kg i.p., 4 h, liver and kidney
  inhibition of LYPLA1/2 in liver and kidney: ~90%
[1]; highest dose 50 mg/kg i.p., 4 h, brain
  inhibition of LYPLA1/2 in the brain: ~75%
[6]
  binding mode (gel filtration): irreversible inhibitor
